Bridge positions count the residues as written; N and C are the ends. Square brackets hold non-standard residues; d marks the D form. Peptide text beside a SMILES is read from it. S5 = C=CCCC[C@](C)(N)C(=O)O; Nle = CCCC[C@H](N)C(=O)O
What was measured:
[1] = system: resistant primary R5 isolate YU2; experiment: Luciferase-based HIV-1 infectivity assay, YU2; assay type: cell-based; details: compared to T649v
From the text: Also the direct inhibitory activity of modified polypeptides and the antibodies targeted thereto can be quantified based upon their capacity to directly block HIV infection of CD4-positive and CCR5-expressing canine thymus cells. Recombinant HIV-1 viruses (eg. HXBc2, YU2, and additional strains available through the NIH AIDS Research and Reference Reagent Program) expressing firefly luciferase and containing the indicated envelope glycoproteins can be used to infect Cf2Th-CD4-CCR5/CXCR4 cells in the presence of serially diluted modified HIV-1 gp41 polypeptides or antibodies targeted thereto After 48 hours, the cells are lysed and luciferase activity is quantified (Si, Z. H., M. Cayabyab, and J. Sodroski, Journal of Virology, 2001. 75(9): p. 4208-4218 Si, Z. H., et al., PNAS, 2004. 101(14): p. 5036-5041). The identical experiment is performed with the amphotropic murine leukemia virus (AMLV), to monitor for any nonspecific effects of the modified polypeptides or antibodies. […]
HIV-1 infectivity assays were performed using known methods (Madani et al., 2007 Inhibition of human immunodeficiency virus envelope glycoprotein-mediated single cell lysis by low-molecular-weight antagonists of viral entry. J Virol, 81: 532-538; and Si et al., 2001 Envelope glycoprotein determinants of neutralization resistance in a simian-human immunodeficiency virus (SHIV-HXBc2P 3.2) derived by passage in monkeys. J Virol, 75:4208-4218; both incorporated herein by reference). […] D-luciferin (50 μL of 1 mM stock in 100 μL luciferin buffer) is then added to each well and luciferase activity measured using a luminometer (EG&G Berthold).
To assess the functional impact of hydrocarbon stapling on gp41-based fusion inhibitor activity, SAH-gp41 peptides were tested and compared to their unmodified counterparts in a luciferase-based HIV-1 infectivity assay. Recombinant HIV-1 bearing the envelope glycoproteins from three distinct HIV-1 strains, HXBc2, ADA, and HXBc2P 3.2, and a negative control virus bearing the amphotropic murine leukemia virus (A-MLV) envelope glycoproteins, were evaluated. […]

pepsin = experiment: Protease resistance assay, pepsin at pH 2; details: pepsin (isolated protease) in buffer, pH 2
Method: The DAD signal was set to 280 nm with an 8 nm bandwidth and MSD set to scan mode with one channel at (M+2H)/2, +1 mass units and the other at (M+3H)/3, +1 mass units. […] Reaction samples were composed of 5 μL peptide in DMSO (1 mM stock) and 195 μL of buffer consisting of 50 mM phosphate buffer pH 7.4 containing 2 mM CaCl2. Upon injection of the 0 hr time point sample, 2 μL of 50 ng/μL chymotrypsin (Sigma) was added and the amount of intact peptide quantitated by serial injection over time. An internal control of acetylated tryptophan carboxamide at a concentration of 100 μM was used to normalize each MSD data point. A plot of MSD area versus time yielded an exponential decay curve and half-lives were determined by nonlinear regression analysis using Prism software (GraphPad). The assay was also performed using trypsin and pepsin in their appropriate buffer conditions.

Chymotrypsin, pH 7 = experiment: Chymotrypsin, pH 7
From the text: Table printed on a drawing sheet, FIG. 17C
Title: Chymotrypsin, pH 7
First reader's note: The table also serves as the legend of the plot of fraction intact over time; the line and marker symbols are left out.

chymotrypsin = biological target: T1, chymotrypsin (Bos taurus, UniProt P00766); experiment: Protease resistance assay, chymotrypsin (LC/MS); assay type: in vitro ADME; details: pH 7.4, 0.5 chymotrypsin, peptide 25 μM
T1 construct: purchased Sigma
Method: The DAD signal was set to 280 nm with an 8 nm bandwidth and MSD set to scan mode with one channel at (M+2H)/2, +1 mass units and the other at (M+3H)/3, +1 mass units. Integration of each MSD signal yielded areas under the curve of >10^8 counts. Reaction samples were composed of 5 μL peptide in DMSO (1 mM stock) and 195 μL of buffer consisting of 50 mM phosphate buffer pH 7.4 containing 2 mM CaCl2. Upon injection of the 0 hr time point sample, 2 μL of 50 ng/μL chymotrypsin (Sigma) was added and the amount of intact peptide quantitated by serial injection over time. An internal control of acetylated tryptophan carboxamide at a concentration of 100 μM was used to normalize each MSD data point. A plot of MSD area versus time yielded an exponential decay curve and half-lives were determined by nonlinear regression analysis using Prism software (GraphPad).

[2] = Circular dichroism, α-helical content; assay type: physicochemical
Method: The α-helicity of stapled modified polypeptides was compared to their unmodified counterparts by circular dichroism. CD spectra were obtained on an Aviv spectropolarimeter at 20° C. using the following standard measurement parameters: wavelength, 190-260 nm; step resolution, 0.5 nm; speed, 20 nm/sec; accumulations, 10; response, 1 sec; bandwidth, 1 nm; path length, 0.1 cm. The α-helical content of each peptide was calculated by dividing the mean residue ellipticity [θ]222obs, by the reported [θ]222obs for a model helical peptide (Forood, B., E. J. Feliciano, and K. P. Nambiar, PNAS, 1993. 90(3): p. 838-842; J. Martin Scholtz, Biopolymers, 1991. 31(13): p. 1463-1470; Lawless, M. K., et al., Biochemistry, 1996. 35(42): p. 13697-13708) or using, for example, the Aviv machine using CDNN software developed by Brohm in order to deduce five different secondary structure fractions (helix, parallel and antiparallel beta-sheet, beta-turn and random coil). Protein Engineering, 1992. 5(3); p. 191-195
In order to evaluate secondary structure improvements of hydrocarbon-stapled peptides, we record and analyze circular dichroism (CD) spectra on an Aviv Biomedical spectrometer (model 410), as described above. […] The CD spectra are initially plotted as wavelength versus millidegree. […] After conversion to mean residue ellipticity, percent α-helicity can be calculated using the equation, % helicity=100×[θ]222/^max[θ]222, where ^max[θ]222=−40,000×[1−(2.5/number of amino acid residues)]. We also employ the curve-fitting CDDN software that is bundled with our spectrometer to calculate the relative fractions of secondary structure including α-helix, parallel and antiparallel β-sheet, β-turn and random coil.

| SMILES | anti-YU2 activity, in words [1] | half-life at 25 μM (pepsin) [h] | Half-Life (Chymotrypsin, pH 7) [h] | Half-Life (chymotrypsin) [h] | % helicity at pH 2 ([2]; pH 2) [%] | % helicity at pH 7 ([2]; pH 7) [%] |
| --- | --- | --- | --- | --- | --- | --- |
| CCCC[C@H](NC(C)=O)C(=O)N[C@H](C(=O)N[C@@H](Cc1c[nH]c2ccccc12)C(=O)N[C@@]1(C)CCCC=CCCC[C@@](C)(C(=O)N[C@@H](CCC(=O)O)C(=O)N[C@H](C(=O)N[C@@H](CC(N)=O)C(=O)N[C@@H](CC(N)=O)C(=O)N[C@@H](Cc2ccc(O)cc2)C(=O)N[C@H](C(=O)N[C@@H](CO)C(=O)N[C@@H](CC(C)C)C(=O)N[C@H](C(=O)N[C@@H](Cc2c[nH]cn2)C(=O)N[C@@H](CO)C(=O)N[C@@H](CC(C)C)C(=O)N[C@H](C(=O)N[C@@H](CCC(=O)O)C(=O)N[C@@H](CCC(=O)O)C(=O)N[C@@H](CO)C(=O)N[C@@H](CCC(N)=O)C(=O)N[C@@H](CC(N)=O)C(=O)N[C@@H](CCC(N)=O)C(=O)N[C@@H](CCC(N)=O)C(=O)N[C@@H](CCC(=O)O)C(=O)N[C@@H](CCCCN)C(=O)N[C@@H](CC(N)=O)C(=O)N[C@@H](CCC(=O)O)C(=O)N[C@@H](CCC(N)=O)C(=O)N[C@@H](CCC(=O)O)C(=O)N[C@@H](CC(C)C)C(=O)N[C@@H](CC(C)C)C(=O)N[C@@H](CCC(=O)O)C(N)=O)[C@@H](C)CC)[C@@H](C)CC)[C@@H](C)O)[C@@H](C)CC)NC(=O)[C@H](CC(=O)O)NC(=O)[C@H](Cc2c[nH]c3ccccc23)NC(=O)[C@H](CCC(=O)O)NC1=O)[C@@H](C)O [SAH-gp41(626-662)(A)] (Ac-[Nle]TW[S5]EWD[S5]EINNYTSLIHSLIEESQNQQEKNEQELLE-NH2; staple 4-8; N-terminus and C-terminus assumed) | enhanced anti-YU2 activity | 1.97 | 1.93 | 1.32 |  |  |
| CCCC[C@H](NC(C)=O)C(=O)N[C@H](C(=O)N[C@@H](Cc1c[nH]c2ccccc12)C(=O)N[C@@H](CCCC)C(=O)N[C@@H](CCC(=O)O)C(=O)N[C@@H](Cc1c[nH]c2ccccc12)C(=O)N[C@@H](CC(=O)O)C(=O)N[C@@H](CCCNC(=N)N)C(=O)N[C@@H](CCC(=O)O)C(=O)N[C@H](C(=O)N[C@@H](CC(N)=O)C(=O)N[C@@H](CC(N)=O)C(=O)N[C@@H](Cc1ccc(O)cc1)C(=O)N[C@H](C(=O)N[C@@H](CO)C(=O)N[C@@H](CC(C)C)C(=O)N[C@H](C(=O)N[C@@H](Cc1c[nH]cn1)C(=O)N[C@@H](CO)C(=O)N[C@@H](CC(C)C)C(=O)N[C@H](C(=O)N[C@@H](CCC(=O)O)C(=O)N[C@@H](CCC(=O)O)C(=O)N[C@@H](CO)C(=O)N[C@@H](CCC(N)=O)C(=O)N[C@@H](CC(N)=O)C(=O)N[C@@H](CCC(N)=O)C(=O)N[C@@]1(C)CCCC=CCCC[C@@](C)(C(=O)N[C@@H](CCC(N)=O)C(=O)N[C@@H](CCC(=O)O)C(=O)N[C@@H](CC(C)C)C(=O)N[C@@H](CC(C)C)C(=O)N[C@@H](CCC(=O)O)C(N)=O)NC(=O)[C@H](CC(N)=O)NC(=O)[C@H](CCCCN)NC(=O)[C@H](CCC(=O)O)NC1=O)[C@@H](C)CC)[C@@H](C)CC)[C@@H](C)O)[C@@H](C)CC)[C@@H](C)O [SAH-gp41(626-662)(F)] (Ac-[Nle]TW[Nle]EWDREINNYTSLIHSLIEESQNQ[S5]EKN[S5]QELLE-NH2; staple 28-32; N-terminus and C-terminus assumed) | enhanced anti-YU2 activity | 2.15 | 1.28 | 1.7 | 82 | 63 |

— patent US10273290B2, “Hydrocarbon double-stapled stabilized HIV-1 GP41 heptad repeat domain peptides” (DANA-FARBER CANCER INSTITUTE, INC., priority 2009, dated 2019)
